Measurements taken from patent US11185074B2, “Microbiocidal quinoline (thio)carboxamide derivatives” (SYNGENTA PARTICIPATIONS AG, priority 2017, dated 2021).

How the values were obtained:
[1] = system: Botryotinia fuckeliana (Botrytis cinerea); experiment: Botryotinia fuckeliana (Botrytis cinerea) / liquid culture (gray mould); type: cell-based; conditions: 72 h, 20 ppm, liquid culture, inhibition of growth photometrically 3-4 days after application, compared to untreated control, read-out: control of Botryotinia fuckeliana
[2] = system: Glomerella lagenarium (Colletotrichum lagenarium); experiment: Glomerella lagenarium (Colletotrichum lagenarium) / liquid culture (anthracnose); type: cell-based; conditions: Colletotrichum orbiculare; 20 ppm; liquid culture, inhibition of growth photometrically 3-4 days after application; compared to untreated control; read-out: control of Glomerella lagenarium
Fusarium culmorum [3] = experiment: microbe, parasite or virus in culture; type: cell-based; conditions: read-out: control of Fusarium culmorum
[4] = system: Monographella nivalis (Microdochium nivale); experiment: Monographella nivalis (Microdochium nivale) / liquid culture (foot rot cereals); type: cell-based; conditions: 96 h, inhibition of growth photometrically 4-5 days after application, compared to untreated control
[5] = system: Magnaporthe grisea (Pyricularia oryzae); experiment: microbe, parasite or virus in culture; type: cell-based; conditions: 72 h, read-out: control of Magnaporthe grisea
[6] = system: Magnaporthe grisea (Pyricularia oryzae); experiment: whole plant or invertebrate; type: in vivo; conditions: foliar, read-out: control of Magnaporthe grisea
Sclerotinia sclerotiorum = Sclerotinia sclerotiorum / liquid culture (cottony rot); conditions: 72 h, read-out: control of Sclerotinia sclerotiorum
Procedure: Sclerotinia sclerotiorum/Liquid Culture (Cottony Rot)
Mycelia fragments of a newly grown liquid culture of the fungus are directly mixed into nutrient broth (Vogels broth). After placing a (DMSO) solution of test compound into a microtiter plate (96-well format) the nutrient broth containing the fungal material is added. The test plates are incubated at 24° C. and the inhibition of growth is determined photometrically 3-4 days after application.

Fusarium culmorum [7] = experiment: whole plant or invertebrate; type: in vivo, Fusarium culmorum on wheat spikelets cv. Monsun; conditions: in Triticum aestivum, read-out: control of Fusarium culmorum
[8] = system: Gibberella zeae (Fusarium graminearum); experiment: whole plant or invertebrate; type: in vivo; conditions: in Triticum aestivum, 144 h, read-out: control of Gibberella zeae

SMILES | inhibition of growth at 20 ppm [1] | inhibition of growth at 20 ppm [2] | inhibition of growth at 20 ppm (Fusarium culmorum [3]) | inhibition of growth at 20 ppm [4] | inhibition of growth at 20 ppm [5] | pest or weed control at 200 ppm [6] | melting point | inhibition of growth at 20 ppm (Sclerotinia sclerotiorum) | pest or weed control at 200 ppm (Fusarium culmorum [7]) | pest or weed control at 200 ppm [8]
C[C@](CC1CCCCC1)(CC(F)(F)F)NC(=O)c1cnc2c(F)cccc2c1 [F-3, N-[(1S)-1-(cyclohexylmeth-yl)-3,3,3-trifluoro-1-methyl-propyl]-8-fluoro-quinoline-3-carboxamide] | ≥ 80% | ≥ 80% | ≥ 80% | ≥ 80% | ≥ 80% | ≥ 80% | 132 to 133 °C | ≥ 80% | – | –
CC(C)CC(CC(C)C)NC(=O)c1cnc2c(F)cccc2c1 [E-9] | ≥ 80% | ≥ 80% | ≥ 80% | ≥ 80% | ≥ 80% | – | 170 to 172 °C | – | ≥ 80% | ≥ 80%
CC(C)(CCCc1ccccc1)NC(=O)c1cnc2c(F)cccc2c1 [E-23] | ≥ 80% | ≥ 80% | ≥ 80% | ≥ 80% | – | – | – | – | ≥ 80% | ≥ 80%
CC(C)=C(F)CC(C)(CC(C)C)NC(=O)c1cnc2c(F)cccc2c1 (stereo not shown) [E-6] | ≥ 80% | ≥ 80% | ≥ 80% | ≥ 80% | ≥ 80% | – | 119 to 121 °C | – | ≥ 80% | ≥ 80%
CC(C)(Cc1ccccc1)C(C)(C)NC(=O)c1cnc2c(F)cccc2c1 [E-21] | ≥ 80% | – | ≥ 80% | ≥ 80% | ≥ 80% | – | 131 to 132 °C | – | ≥ 80% | ≥ 80%
CC(C)(C)C(CCc1ccccc1)NC(=O)c1cnc2c(F)cccc2c1 (stereo not shown) [E-14] | ≥ 80% | ≥ 80% | ≥ 80% | ≥ 80% | ≥ 80% | – | 55 to 65 °C | – | ≥ 80% | ≥ 80%
CC1(C[C@](C)(CC(F)(F)F)NC(=O)c2cnc3c(F)cccc3c2)CC1 [F-1, 8-fluoro-N-[(1R)-3,3,3-trifluoro-1-methyl-1-[(1-methylcyclo-propyl)meth-yl]propyl] quinoline-3-carboxamide] | ≥ 80% | ≥ 80% | ≥ 80% | ≥ 80% | ≥ 80% | – | – | – | ≥ 80% | ≥ 80%
C=C(C)CC(C)(CC(=C)C)NC(=O)c1cnc2c(F)cccc2c1 [E-2, N-[1,3-dimethyl-1-(2-methylallyl)but-3-enyl]-8-fluoro-quinoline-3-carboxamide] | ≥ 80% | ≥ 80% | ≥ 80% | ≥ 80% | ≥ 80% | – | 116 to 118 °C | – | ≥ 80% | ≥ 80%
CCCC(C)CC(C)(CC(F)(F)F)NC(=O)c1cnc2ccccc2c1 (stereo not shown) [E-46] | ≥ 80% | ≥ 80% | ≥ 80% | – | – | – | – | – | ≥ 80% | ≥ 80%
C=C(C)CC(C)(CC1CCCCC1)NC(=O)c1cnc2c(F)c(F)ccc2c1 (stereo not shown) [E-48] | ≥ 80% | ≥ 80% | ≥ 80% | ≥ 80% | ≥ 80% | – | 115 to 117 °C | ≥ 80% | ≥ 80% | –
C[C@](CC1CCCC1)(CC(F)(F)F)NC(=O)c1cnc2c(F)cccc2c1 [F-5, N-[(1S)-1-(cyclopentylmeth-yl)-3,3,3-trifluoro-1-methyl-propyl]-8-fluoro-quinoline-3-carboxamide] | ≥ 80% | ≥ 80% | ≥ 80% | – | ≥ 80% | – | 102 to 105 °C | ≥ 80% | ≥ 80% | –
Cc1cccc2cc(C(=O)NC(C)(CC3CCCC3)CC(F)(F)F)cnc12 (stereo not shown) [E-64] | ≥ 80% | ≥ 80% | ≥ 80% | ≥ 80% | ≥ 80% | – | 108 to 116 °C | ≥ 80% | ≥ 80% | –
CCCC(C)CC(C)NC(=O)c1cnc2c(C)cccc2c1 (stereo not shown) [E-42] | ≥ 80% | ≥ 80% | ≥ 80% | ≥ 80% | – | ≥ 80% | – | – | – | –
CC(C)=C(F)CC(CC(C)C)NC(=O)c1cnc2c(F)cccc2c1 (stereo not shown) [E-18] | ≥ 80% | ≥ 80% | ≥ 80% | ≥ 80% | ≥ 80% | – | 75 to 76 °C | – | ≥ 80% | ≥ 80%
CC(C)(CCc1cccc(C(F)(F)F)c1)NC(=O)c1cnc2c(F)cccc2c1 [E-27] | ≥ 80% | ≥ 80% | ≥ 80% | ≥ 80% | – | ≥ 80% | – | – | – | –
C/C=C(\C)CC(C)(CC(C)C)NC(=O)c1cnc2c(F)cccc2c1 (stereo not shown) [E-5] | ≥ 80% | ≥ 80% | ≥ 80% | ≥ 80% | ≥ 80% | – | – | – | ≥ 80% | ≥ 80%
CC(CC1CCCC1)(CC(F)(F)F)NC(=O)c1cnc2ccccc2c1 (stereo not shown) [E-63] | ≥ 80% | ≥ 80% | ≥ 80% | ≥ 80% | ≥ 80% | – | 94 to 103 °C | ≥ 80% | ≥ 80% | –
CC(CC1CC=CCC1)(CC(F)(F)F)NC(=O)c1cnc2c(F)cccc2c1 (stereo not shown) [E-54] | ≥ 80% | ≥ 80% | ≥ 80% | ≥ 80% | ≥ 80% | – | 115 to 118 °C | ≥ 80% | ≥ 80% | –
CCCC(C)CC(C)(CC(F)(F)F)NC(=O)c1cnc2c(C)cccc2c1 (stereo not shown) [E-47] | ≥ 80% | ≥ 80% | ≥ 80% | ≥ 80% | ≥ 80% | ≥ 80% | – | – | ≥ 80% | –
CCC(CC)CC(C)(CC(F)(F)F)NC(=O)c1cnc2c(F)cccc2c1 (stereo not shown) [E-45] | ≥ 80% | ≥ 80% | ≥ 80% | ≥ 80% | ≥ 80% | – | – | – | – | ≥ 80%
